Measured values taken from US10772896B2, “Process for preparing a dry powder formulation comprising an anticholinergic, a corticosteroid and a beta-adrenergic” (CHIESI FARMACEUTICI S.P.A., priority 2015, dated 2020).

Key:
[1] = Aerosol performance by Next Generation Impactor (NGI); format: physicochemical
Text: After aerosolization of 3 doses from the inhaler device, the NGI apparatus was disassembled and the amounts of drug deposited in the stages were recovered by washing with a solvent mixture and then quantified by High-Performance Liquid Chromatography (HPLC).

[2] = Uniformity of distribution of the active ingredients in the blend (10 samples, HPLC); format: physicochemical; conditions: dry powder formulation of Example 2; mean value ± RSD
Method: The uniformity of distribution of the active ingredients was evaluated by withdrawing 10 samples from different parts of the blend and evaluated by HPLC

[3] = Batch CY (Cyclomix), reference powder formulation of WO 2015/004243
[4] = Batch MF (mechano-fusion), reference powder formulation of WO 2015/004243
[5] = dry powder formulation of Example 2, DPI of WO 2004/012801
[6] = dry powder formulation of Example 2, DPI of WO 2004/012801, 2.0-5.0 micron
[7] = dry powder formulation of Example 2, DPI of WO 2004/012801, particle size <= 5.0 micron
[8] = dry powder formulation of Example 2, multidose DPI of WO 2004/012801
[9] = pMDI HFA solution formulation of WO 2011/076843 (reference Example 4)

Row | Compound | Delivered Dose [1, 3] [µg] | Extrafine Particle Fraction < 2 μm [1, 3] [%] | Extrafine Particle Mass < 2 μm [1, 3] [µg] | Fine Particle Fraction [1, 3] [%] | Fine Particle Mass [1, 3] [µg] | MMAD [1, 3] [μm] | Mid Fine Particle Fraction [1, 3] [%] | Mid Fine Particle Mass [1, 3] [µg] | Delivered Dose [1, 4] [µg] | Extrafine Particle Fraction < 2 μm [1, 4] [%] | Extrafine Particle Mass < 2 μm [1, 4] [µg] | Fine Particle Fraction [1, 4] [%] | Fine Particle Mass [1, 4] [µg] | MMAD [1, 4] [μm] | Mid Fine Particle Fraction [1, 4] [%] | Mid Fine Particle Mass [1, 4] [µg] | Extrafine Particle Fraction < 1 μm [1, 5] [%] | Extrafine Particle Fraction < 2 μm [1, 5] [%] | Extrafine Particle Mass < 1 μm [1, 5] [µg] | Extrafine Particle Mass < 2 μm [1, 5] [µg] | other results
1 | C[N+]1(C)CCC(OC(=O)C(O)(c2ccccc2)C2CCCC2)C1 (stereo not drawn) [GB, Glycopyrronium bromide] | 11.6 | 34.9 | 4.0 | 57.2 | 6.6 | 1.8 | 22.3 | 2.6 | 11.9 | 33.2 | 4.0 | 53.8 | 6.4 | 1.4 | 20.6 | 2.5 | 9.8 | 26.4 | 1.1 | 2.9 | Fine Particle Fraction [1, 5]: 48.1%; MMAD [1, 5]: 1.9 μm; Mid Fine Particle Fraction [1, 6]: 21.6%; Mid Fine Particle Mass [1, 6]: 2.4 µg; Fine Particle Mass [1, 7]: 5.4 µg; Delivered Dose [1, 8]: 11.1 µg; Delivered Dose [1, 9]: 10.6 µg; Extrafine Particle Fraction < 2 μm [1, 9]: 40.2%; Extrafine Particle Mass < 2 μm [1, 9]: 4.2 µg; Fine Particle Fraction [1, 9]: 45.1%; Fine Particle Mass [1, 9]: 4.8 µg; MMAD [1, 9]: 1.0 μm; Mid Fine Particle Fraction [1, 9]: 5.0%; Mid Fine Particle Mass [1, 9]: 0.5 µg
2 | CCC(=O)OCC(=O)[C@@]1(OC(=O)CC)[C@@H](C)C[C@H]2[C@@H]3CCC4=CC(=O)C=C[C@]4(C)[C@@]3(Cl)[C@@H](O)C[C@@]21C [BDP, Beclometasone dipropionate] | 90.6 | 53.9 | 48.8 | 71.2 | 64.5 | 1.1 | 17.3 | 15.7 | 95.7 | 52.3 | 50.0 | 69.9 | 66.9 | 1.1 | 17.6 | 16.9 | 13.9 | 32.1 | 12.4 | 28.5 | Uniformity of distribution [2]: 100.5 (±1.8); Fine Particle Fraction [1, 5]: 49.3%; MMAD [1, 5]: 1.6 μm; Mid Fine Particle Fraction [1, 6]: 17.1%; Mid Fine Particle Mass [1, 6]: 15.2 µg; Fine Particle Mass [1, 7]: 43.6 µg; Delivered Dose [1, 8]: 88.5 µg; Delivered Dose [1, 9]: 87.8 µg; Extrafine Particle Fraction < 2 μm [1, 9]: 40.9%; Extrafine Particle Mass < 2 μm [1, 9]: 35.9 µg; Fine Particle Fraction [1, 9]: 46.0%; Fine Particle Mass [1, 9]: 40.4 µg; MMAD [1, 9]: 1.0 μm; Mid Fine Particle Fraction [1, 9]: 5.2%; Mid Fine Particle Mass [1, 9]: 4.5 µg
